Data on eight molecules can be found in ChEMBL document CHEMBL5321231, “Synthesis, antiviral activity, and computational study of β-d-xylofuranosyl nucleoside phosphonates” (Eur J Med Chem, 2023).

pEC50: −log10 of the molar value. Activity calls are given as the source filed them. The calls are words filed in the database; no cut-off is given here.

Data set [1] in a line: Cytotoxicity against human Huh-7 cells assessed as reduction in cell viability by neutral red dye based spectrophotometric analysis. Format: toxicity.
Data set [2] is described as follows: Selectivity index, ratio of CC50 for cytotoxicity against African green monkey Vero 76 cells to EC50 for antiviral activity against MeV CC strain infected in African green monkey Vero 76 cells by visual analysis. Type of data set: toxicity, cell-based. The following applies: read-out: Ratio CC50/EC50.
The subject of data set [3] is Respiratory syncytial virus. The data set can be described thus: Antiviral activity against RSV A2 strain infected in vervet monkey MA-104 cells assessed as reduction in virus induced cytopathic effect incubated for 6 days by neutral red dye based spectrophotometric analysis. Type of data set: functional, organism-based. The settings on record: time 6.0 day.
Data set [4] has as its system dengue virus type 2. The data set can be described thus: Antiviral activity against DENV-2 New Guinea C infected in human Huh-7 cells assessed as reduction in virus induced cytopathic effect incubated for 6 days by neutral red dye based spectrophotometric analysis. Format: functional, organism-based. The settings on record: Huh-7, 144 h.
Data set [5] in a line: Cytotoxicity against African green monkey Vero 76 cells assessed as reduction in cell viability by visual analysis. Format: toxicity, cell-based. The following applies: chlorocebus sabaeus.
The subject of data set [6] is enterovirus D68. The data set can be described thus: Antiviral activity against EV-68 US/KY/14-18953 infected in human RD cells assessed as reduction in virus induced cytopathic effect incubated for 3 days by neutral red dye based spectrophotometric analysis. Format: functional, organism-based. The following applies: Enterovirus D, US/KY/14-18953, RD, 72 h.
Data set [7] relates to enterovirus D68. The experiment in a line: Antiviral activity against EV-68 US/KY/14-18953 infected in human RD cells assessed as reduction in virus induced cytopathic effect incubated for 3 days by visual analysis. Type of data set: functional, organism-based. The following applies: Enterovirus D, US/KY/14-18953, RD, 72 h.
Data set [8] can be described thus: Cytotoxicity against human RD cells assessed as reduction in cell viability by neutral red dye based spectrophotometric analysis. Type of data set: toxicity.
Data set [9] has as its system Measles morbillivirus. The data set can be described thus: Antiviral activity against MeV CC strain infected in African green monkey Vero 76 cells assessed as reduction in virus induced cytopathic effect incubated for 6 days by visual analysis. Format: functional, organism-based. The settings on record: Vero 76, 144 h.
A short description of data set [10]: Cytotoxicity against human Huh-7 cells assessed as reduction in cell viability by visual analysis. Type of data set: toxicity, cell-based.
A short description of data set [11]: Selectivity index, ratio of CC50 for cytotoxicity against African green monkey Vero 76 cells to EC50 for antiviral activity against MeV CC strain infected in African green monkey Vero 76 cells by neutral red dye based spectrophotometric analysis. Type of data set: toxicity, cell-based. The settings on record: read-out: Ratio CC50/EC50.
Data set [12] in a line: Cytotoxicity against African green monkey Vero 76 cells assessed as reduction in cell viability by neutral red dye based spectrophotometric analysis. Format: toxicity. The following applies: chlorocebus sabaeus.
In data set [13] the test system is Middle East respiratory syndrome-related coronavirus. The experiment in a line: Antiviral activity against MERS-CoV EMC strain infected in […] cells assessed as reduction in virus induced cytopathic effect incubated for 5 days by neutral red dye based spectrophotometric analysis. Format: functional, organism-based. The settings on record: time 5.0 day.
In data set [14] the test system is Hepatitis B virus. The experiment in a line: Antiviral activity against Hepatitis B virus. Format: functional, organism-based.
The test system of data set [15] is Herpesviridae sp. The experiment in a line: Antiviral activity against HSV. Type of data set: functional, organism-based.
The subject of data set [16] is dengue virus type 2. The experiment in a line: Antiviral activity against DENV-2 New Guinea C infected in human Huh-7 cells assessed as reduction in virus induced cytopathic effect incubated for 6 days by visual analysis. The settings on record: Huh-7, 144 h. Format: functional, organism-based.
Data set [17] deals with Measles morbillivirus. The data set can be described thus: Antiviral activity against MeV CC strain infected in African green monkey Vero 76 cells assessed as reduction in virus induced cytopathic effect incubated for 6 days by neutral red dye based spectrophotometric analysis. The settings on record: Vero 76, 144 h. Type of data set: functional, organism-based.
For data set [18], the system named is Influenza A virus. The experiment in a line: Antiviral activity against influenza A virus H1N1 California/07/2009 infected in dog MDCK cells assessed as reduction in virus induced cytopathic effect incubated for 6 days by neutral red dye based spectrophotometric analysis. Format: functional, organism-based. The settings on record: time 6.0 day.
The subject of data set [19] is Tacaribe virus. The experiment in a line: Antiviral activity against TCRV TRVL 11573 strain infected in African green monkey Vero 76 cells assessed as reduction in virus induced cytopathic effect incubated for 7 days by neutral red dye based spectrophotometric analysis. Format: functional, organism-based. The following applies: Mammarenavirus tacaribeense, time 7.0 day.

Data set [20] in a line: Cytotoxicity against human RD cells assessed as reduction in cell viability by visual analysis. Format: toxicity, cell-based.
The nature of data set [21]: Selectivity index, ratio of CC50 for cytotoxicity against human RD cells to EC50 for antiviral activity against EV-68 US/KY/14-18953 infected in human RD cells by neutral red dye based spectrophotometric analysis. Type of data set: toxicity, cell-based. The settings on record: read-out: Ratio CC50/EC50.
Data set [22] is described as follows: Selectivity index, ratio of CC50 for cytotoxicity against human RD cells to EC50 for antiviral activity against EV-68 US/KY/14-18953 infected in human RD cells by visual analysis. Format: toxicity, cell-based. The settings on record: read-out: Ratio CC50/EC50.

With `Nc1ccn([C@@H]2O[C@H](CO)[C@H](OCP(=O)(O)O)[C@H]2O)c(=O)n1`, the CC50 in data set [1], in data set [5], in [8], in [10], in data set [12] and in [20] was more than 100 µM throughout. Further, the selectivity ratio in [2] was more than 1.4; in data set [11], more than 2. Also, the outcome in data set [3], in data set [13], in data set [14], in data set [15], in data set [18] and in [19] was inactive. For the same molecule, the pEC50 in data set [4] was less than 4.00; in data set [6], less than 4.00; in data set [7] it was less than 4.00; in data set [9], 4.14; in data set [16], less than 4.00; in data set [17], 4.31.

Turning to `Nc1ncnc2c1ncn2[C@@H]1O[C@H](CO)[C@H](OCP(=O)(O)O)[C@H]1O`, the CC50 in data set [1], in data set [5], in data set [8], in [10], in data set [12] and in data set [20] was more than 100 µM throughout. In addition, the selectivity ratio is more than 8.3 in [2], more than 5 in data set [21], more than 7.1 in [11] and more than 6.3 in [22]. For the same molecule, the result in data set [3], in [13], in [14], in data set [15], in [18] and in data set [19] was inactive. Also, the negative logarithm of the EC50 (pEC50) is less than 4.00 in [4]; 4.70 in data set [6]; 4.80 in [7]; 4.92 in data set [9]; less than 4.00 in data set [16]; 4.85 in [17].

As to `O=c1ccn([C@@H]2O[C@H](CO)[C@H](OCP(=O)(O)O)[C@H]2O)c(=O)[nH]1`, the CC50 in data set [1], in data set [5], in data set [8], in [10], in data set [12] and in [20] was more than 100 µM in each case. In addition, the selectivity ratio was more than 1.4 in data set [2] and more than 1.2 in data set [11]. The result in data set [3], in [13], in data set [14], in [15], in [18] and in [19] was inactive. Also, the pEC50 in data set [4] was less than 4.08; in data set [6] it was less than 4.00; in data set [7], less than 4.00; in data set [9], 4.14; in [16] it was less than 4.00; in data set [17] it was 4.09.

As to `NC(=O)c1ncn([C@@H]2O[C@H](CO)[C@@H](O)[C@H]2O)n1`, the result in data set [3], in data set [18] and in data set [19] was inactive.

For `O=c1[nH]cnc2c1ncn2[C@@H]1O[C@H](CO)[C@H](OCP(=O)(O)O)[C@H]1O`, the CC50 in [1], in [5], in data set [8], in data set [10], in data set [12] and in data set [20] was more than 100 µM each time. In addition, the result in data set [3], in data set [13], in data set [14], in [15], in data set [18] and in data set [19] was inactive. Also, the pEC50 in [4] was less than 4.00; in data set [6], 4.05; in [7] it was 4.34; in data set [9], less than 4.00; in [16], less than 4.00; in data set [17] it was less than 4.00. Besides, the selectivity ratio in data set [21] was more than 1.1; in data set [22], more than 2.2.

As to `Nc1nc2c(ncn2[C@@H]2O[C@H](CO)[C@H](OCP(=O)(O)O)[C@H]2O)c(=O)[nH]1`, the CC50 is more than 100 µM in data set [1]; more than 100 µM in [5]; more than 100 µM in [8]; more than 100 µM in data set [10]; more than 100 µM in data set [12]; 73 µM in [20]. The result in [3], in data set [13], in data set [14], in data set [15], in data set [18] and in [19] was inactive. Moreover, the pEC50 in data set [4] is less than 4.00; in [6], 4.40; in data set [7], 4.33; in data set [9], less than 4.00; in [16], less than 4.00; in data set [17] it was less than 4.00. In addition, the selectivity ratio in data set [21] was more than 2.5; in data set [22] it was 1.6.

With `CC(C)S(=O)(=O)n1c(N)nc2ccc(/C(=N/O)c3ccccc3)cc21` [ENVIROXIME], the CC50 in data set [8] was determined as 5.5 µM; in data set [20], 10 µM.

Take `Nc1ccn([C@@H]2O[C@H](CO)[C@@H](O)[C@H]2F)c(=O)n1`: the values for the selectivity ratio in [2] and in data set [11] were more than 140 and more than 110, respectively. Moreover, the CC50 in [5] and in [12] was more than 100 µM each time. Besides, the negative logarithm of the EC50 (pEC50) in data set [9] was 6.15; in [17], 6.02.
